{"source": "patent US20030008852A1", "about": "“Transdermal system containing acetylsalicylic acid for treatment of migraine” (priority 1999, published 2003)", "origin": "cited, not measured here", "system": "migraine", "details": "oral, 235 mg every second day", "data": [{"compound": "CC(=O)Oc1ccccc1C(=O)O", "note": "[acetylsalicylic acid]", "values": [{"measurement": "reduction in the migraine recurrence rate compared with the placebo group", "value": 20, "unit": "%"}]}]}
